Results: patent US9302999B2, “Substituted triazoles as herbicides” (E. I. DU PONT DE NEMOURS AND COMPANY, priority 2012, dated 2016)

What was measured:
Format in all cases: in vivo
[1] = tested on: corn (Zea mays); test: Test A pre-/postemergence: corn
Procedure, shortened: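 Pre: directed soil spray after planting in loam + sand. Post: same formulation (non-phytotoxic solvent + surfactant) on 1–2-leaf plants, 2–10 cm. Greenhouse ~10 d; visual injury 0–100 vs untreated.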

[2] = tested on: ducksalad (Heteranthera limosa); test: Test B flooded paddy: ducksalad; settings: Flood, applied to paddy water at 2-leaf stage, visually evaluated after 13 to 15 days
Procedure, shortened: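 Each compound is applied to the floodwater of pots holding 2-leaf seedlings, water standing 3 cm over the soil throughout. Plants stay in a greenhouse 13 to 15 days before visual scoring against controls from 0 (no effect) to 100 (complete control).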

[3] = tested on: wild oat (Avena fatua); test: Test C pre-/postemergence: wild oat; settings: Postemergence
Procedure, shortened: (§1)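 Visual injury scored 0–100 (100 = complete control) against untreated controls after 13–15 greenhouse days. Surfactant-containing solvent formulations applied either to soil after sowing (loam/sand) or over 1- to 4-leaf plants, 2–18 cm tall.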

[4] = tested on: corn (Zea mays); test: Test C pre-/postemergence: corn
Procedure, shortened: as §1

[5] = tested on: large crabgrass (Digitaria sanguinalis); test: Test C pre-/postemergence: large crabgrass
Procedure, shortened: as §1

[6] = tested on: foxtail, giant (giant foxtail, Setaria faberii); test: Test C pre-/postemergence: foxtail, giant
Procedure, shortened: as §1

[7] = tested on: kochia (Kochia scoparia); test: Test C pre-/postemergence: kochia; settings: Postemergence
Procedure, shortened: as §1

[8] = tested on: nutsedge, yellow (yellow nutsedge, Cyperus esculentus); test: Test C pre-/postemergence: nutsedge, yellow
Procedure, shortened: as §1

[9] = tested on: ragweed (common ragweed, Ambrosia elation); test: Test C pre-/postemergence: ragweed
Procedure, shortened: as §1

[10] = tested on: velvetleaf (Abutilon theophrasti); test: Test C pre-/postemergence: velvetleaf
Procedure, shortened: as §1

[11] = tested on: chickweed (common chickweed, Stellaria media); test: Test C postemergence: chickweed
Procedure, shortened: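 Seedlings are raised in pots of peat-based medium to 2–18 cm (1- to 4-leaf stage). The formulated compound is then applied postemergence. Plants stay in the greenhouse for 13 to 15 days and are rated visually against controls, where 0 means no effect and 100 complete control.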

[12] = Postemergence, 125 g ai/ha, 0 to 100 scale, 0 is no effect, 100 is complete control
[13] = Postemergence, 500 g ai/ha, 0 to 100 scale, 0 is no effect, 100 is complete control
[14] = Preemergence, 125 g ai/ha, 0 to 100 scale where 0 is no effect and 100 is complete control
[15] = Preemergence, 500 g ai/ha, 0 to 100 scale (0 no effect, 100 complete control)
[16] = 31 g ai/ha, scale 0 to 100 (0 no effect, 100 complete control)
[17] = 62 g ai/ha, scale 0 to 100 (0 no effect, 100 complete control)
[18] = 125 g ai/ha, scale 0 to 100, 0 no effect, 100 complete control
[19] = 250 g ai/ha, scale 0 to 100 (0 no effect, 100 complete control)
[20] = Postemergence, 31 g ai/ha, scale 0 to 100 (0 no effect, 100 complete control)
[21] = Postemergence, 62 g ai/ha, scale 0 to 100 (0 no effect, 100 complete control)
[22] = Postemergence, 125 g ai/ha, scale 0 to 100, 0 no effect, 100 complete control
[23] = Postemergence, 250 g ai/ha, scale 0 to 100
[24] = Preemergence, 31 g ai/ha, scale 0 (no effect) to 100 (complete control)
[25] = Preemergence, 62 g ai/ha, scale of 0 to 100, 0 is no effect, 100 is complete control
[26] = Preemergence, 125 g ai/ha, scale 0 to 100, 0 no effect, 100 complete control
[27] = Preemergence, 250 g ai/ha, scale 0 to 100, 0 no effect, 100 complete control
[28] = Postemergence, 250 g ai/ha, scale 0 to 100 (0 no effect, 100 complete control)

CCCc1nn(-c2ccc(F)cc2)nc1Oc1ccnc(C(F)(F)F)c1 [Compound 168]
Plant response rating, Corn [1, 12]: 20
Corn plant response rating [1, 13]: 50
Plant response rating, Corn [1, 14]: 20
Plant response rating, Corn [1, 15]: 40
Plant response rating, Ducksalad (0 to 100 scale, 0 is no effect, 100 is complete control) ([2]; 250 g ai/ha): 80
Plant response rating, Oat, Wild [3, 16]: 30
Plant response rating, Oat, Wild [3, 17]: 45
Plant response rating, Oat, Wild [3, 18]: 50
Plant response rating, Oat, Wild [3, 19]: 60
Plant response rating, Corn [4, 20]: 15
Plant response rating, Corn [4, 21]: 15
Plant response rating, Corn [4, 22]: 30
Plant response rating, Corn [4, 23]: 45
Plant response rating, Corn [4, 24]: 5
Plant response rating, Corn [4, 25]: 15
Plant response rating, Corn [4, 26]: 25
Plant response rating, Corn [4, 27]: 55
Plant response rating, Crabgrass, Large [5, 20]: 30
Plant response rating, Crabgrass, Large [5, 21]: 65
Plant response rating, Crabgrass, Large [5, 22]: 95
Plant response rating, Crabgrass, Large [5, 23]: 95
Plant response rating, Crabgrass, Large [5, 24]: 100
Plant response rating, Crabgrass, Large [5, 25]: 100
Plant response rating, Crabgrass, Large [5, 26]: 100
Plant response rating, Crabgrass, Large [5, 27]: 100
Plant response rating, Foxtail, Giant [6, 20]: 55
Plant response rating, Foxtail, Giant [6, 21]: 65
Plant response rating, Foxtail, Giant [6, 22]: 95
Plant response rating, Foxtail, Giant [6, 23]: 95
Plant response rating, Foxtail, Giant [6, 24]: 100
Plant response rating, Foxtail, Giant [6, 25]: 100
Plant response rating, Foxtail, Giant [6, 26]: 100
Plant response rating, Foxtail, Giant [6, 27]: 100
Plant response rating, Kochia [7, 16]: 90
Plant response rating, Kochia [7, 17]: 90
Plant response rating, Kochia [7, 18]: 90
Plant response rating, Kochia [7, 19]: 90
Plant response rating, Nutsedge, Yellow [8, 20]: 10
Plant response rating, Nutsedge, Yellow [8, 21]: 10
Plant response rating, Nutsedge, Yellow [8, 22]: 15
Plant response rating, Nutsedge, Yellow [8, 28]: 20
Plant response rating, Nutsedge, Yellow [8, 24]: 0
Plant response rating, Nutsedge, Yellow [8, 25]: 0
Plant response rating, Nutsedge, Yellow [8, 26]: 5
Plant response rating, Nutsedge, Yellow [8, 27]: 5
Plant response rating, Ragweed [9, 20]: 65
Plant response rating, Ragweed [9, 21]: 65
Plant response rating, Ragweed [9, 22]: 65
Plant response rating, Ragweed [9, 28]: 80
Plant response rating, Ragweed [9, 24]: 10
Plant response rating, Ragweed [9, 25]: 30
Plant response rating, Ragweed [9, 26]: 80
Plant response rating, Ragweed [9, 27]: 80
Plant response rating, Velvetleaf [10, 20]: 60
Plant response rating, Velvetleaf [10, 21]: 75
Plant response rating, Velvetleaf [10, 22]: 80
Plant response rating, Velvetleaf [10, 28]: 90
Plant response rating, Velvetleaf [10, 24]: 80
Plant response rating, Velvetleaf [10, 25]: 100
Plant response rating, Velvetleaf [10, 26]: 100
Plant response rating, Velvetleaf [10, 27]: 100
Plant response rating, Chickweed [11, 16]: 80
Plant response rating, Chickweed [11, 17]: 80
Plant response rating, Chickweed [11, 18]: 90
Plant response rating, Chickweed ([11]; 250 g ai/ha, scale 0 to 100): 100

CCc1nn(-c2ccc(C(F)(F)F)c(F)c2)nc1Oc1ccnc(C(F)(F)F)c1 [Compound 183]
Plant response rating, Corn [1, 12]: 20
Corn plant response rating [1, 13]: 50
Plant response rating, Corn [1, 14]: 20
Plant response rating, Corn [1, 15]: 30
Plant response rating, Ducksalad (0 to 100 scale, 0 is no effect, 100 is complete control) ([2]; 125 g ai/ha): 65
Plant response rating, Oat, Wild [3, 16]: 30
Plant response rating, Oat, Wild [3, 17]: 40
Plant response rating, Oat, Wild [3, 18]: 55
Plant response rating, Oat, Wild [3, 19]: 85
Plant response rating, Corn [4, 20]: 10
Plant response rating, Corn [4, 21]: 20
Plant response rating, Corn [4, 23]: 30
Plant response rating, Corn [4, 24]: 15
Plant response rating, Corn [4, 25]: 15
Plant response rating, Corn [4, 26]: 40
Plant response rating, Corn [4, 27]: 40
Plant response rating, Crabgrass, Large [5, 20]: 25
Plant response rating, Crabgrass, Large [5, 21]: 35
Plant response rating, Crabgrass, Large [5, 22]: 35
Plant response rating, Crabgrass, Large [5, 23]: 85
Plant response rating, Crabgrass, Large [5, 24]: 100
Plant response rating, Crabgrass, Large [5, 25]: 100
Plant response rating, Crabgrass, Large [5, 26]: 100
Plant response rating, Crabgrass, Large [5, 27]: 100
Plant response rating, Foxtail, Giant [6, 20]: 45
Plant response rating, Foxtail, Giant [6, 21]: 45
Plant response rating, Foxtail, Giant [6, 22]: 65
Plant response rating, Foxtail, Giant [6, 23]: 85
Plant response rating, Foxtail, Giant [6, 24]: 100
Plant response rating, Foxtail, Giant [6, 25]: 100
Plant response rating, Foxtail, Giant [6, 26]: 100
Plant response rating, Foxtail, Giant [6, 27]: 100
Plant response rating, Kochia [7, 16]: 90
Plant response rating, Kochia [7, 17]: 90
Plant response rating, Kochia [7, 18]: 90
Plant response rating, Kochia [7, 19]: 95
Plant response rating, Nutsedge, Yellow [8, 20]: 10
Plant response rating, Nutsedge, Yellow [8, 21]: 10
Plant response rating, Nutsedge, Yellow [8, 22]: 10
Plant response rating, Nutsedge, Yellow [8, 28]: 10
Plant response rating, Nutsedge, Yellow [8, 24]: 0
Plant response rating, Nutsedge, Yellow [8, 25]: 0
Plant response rating, Nutsedge, Yellow [8, 26]: 5
Plant response rating, Nutsedge, Yellow [8, 27]: 5
Plant response rating, Ragweed [9, 20]: 65
Plant response rating, Ragweed [9, 21]: 80
Plant response rating, Ragweed [9, 22]: 90
Plant response rating, Ragweed [9, 28]: 95
Plant response rating, Ragweed [9, 24]: 50
Plant response rating, Ragweed [9, 25]: 50
Plant response rating, Ragweed [9, 26]: 95
Plant response rating, Ragweed [9, 27]: 95
Plant response rating, Velvetleaf [10, 20]: 75
Plant response rating, Velvetleaf [10, 22]: 75
Plant response rating, Velvetleaf [10, 28]: 75
Plant response rating, Velvetleaf [10, 24]: 45
Plant response rating, Velvetleaf [10, 25]: 55
Plant response rating, Velvetleaf [10, 26]: 100
Plant response rating, Velvetleaf [10, 27]: 100
Plant response rating, Chickweed [11, 16]: 75
Plant response rating, Chickweed [11, 17]: 75
Plant response rating, Chickweed [11, 18]: 80
Plant response rating, Chickweed ([11]; 250 g ai/ha, scale 0 to 100): 98
